Measured values from patent US20240277738A1, “GAMETOCYTOCIDAL COMPOUND” (Eberhard Karls Universität Tübingen Medizinische Fakultãt, priority 2021, published 2024).
Structures can show the parent of a compound that is named as a salt. Where two headings read alike, the source gives them in different places.

Experiments:
[1] = system: Plasmodium falciparum strain 3D7; experiment: Growth inhibition assay with asexual Plasmodium falciparum (HRP2 ELISA); assay type: cell-based; details: for Fold differences, 3 day-assays: IC50 3D7 versus A1-H.1, 3 days; for Fold differences, 6 day-assays: IC50 3D7 versus A1-H.1, 6 days
HepG2 cells = experiment: Cytotoxicity, neutral red assay; assay type: cell-based, human; details: for IC50: read-out: IC50 (μM) in HepG2 cells; for SI 3D7: selectivity index HepG2 versus P. falciparum 3D7; for SI A1-H.1: selectivity index HepG2 versus P. knowlesi A1-H.1
[2] = system: Plasmodium falciparum Dd2 (multidrug-resistant); experiment: Growth inhibition assay, resistant strain Dd2; assay type: cell-based; details: read-out: IC50, Dd2
[3] = system: Plasmodium falciparum K1 (multidrug-resistant); experiment: Growth inhibition assay, resistant strain K1; assay type: cell-based; details: read-out: IC50, K1
[4] = system: Plasmodium falciparum 7G8 (chloroquine resistant); experiment: Growth inhibition assay, resistant strain 7G8; assay type: cell-based; details: read-out: IC50, 7G8
[5] = system: mature (stage IV-V) Plasmodium falciparum gametocytes (NF54); experiment: In vitro activity against mature gametocytes (ATP production, BacTiterGlo); assay type: cell-based; details: 48 h
[6] = system: Plasmodium falciparum strain 3D7; experiment: Apicoplast as target: growth inhibition with and without IPP supplementation; assay type: cell-based; details: 3D7, 6 days
[7] = system: Plasmodium falciparum strain 3D7; experiment: Ionophoric activity assay: growth inhibition with KCl or MgCl2 supplementation; assay type: cell-based
Mycobacterium bovis = details: cited from earlier work
[8] = system: Plasmodium falciparum 3D7 and Dd2 asexual stages; experiment: Thin blood smear microscopy (Giemsa); details: 1 nM for 6 h
Description: Then, thin blood smears were prepared, fixed in 100% methanol for 10 seconds, and stained with Giemsa (Merck) solution (5%) for 20 minutes. The slides were washed and observed under a Leica DMBL microscope, and pictures were taken using a ProgRes C10 camera and software (Jenoptik), at 100× magnification.

[9] = Plasmodium falciparum, 3D7, 72 h, read-out: IC50, 3 day-assays, 3D7
[10] = Plasmodium falciparum, 3D7, 144 h, read-out: IC50, 6 day-assays, 3D7
[11] = Plasmodium falciparum, 72 h, P. falciparum 3D7, 3 days of incubation, read-out: IC50, 3 day-assays, 3D7
[12] = Plasmodium falciparum, 144 h, P. falciparum 3D7, 6 days of incubation, read-out: IC50, 6 day-assays, 3D7
[13] = Plasmodium falciparum, NF54, stage IV and V gametocytes

CC(C)[C@@H](N)C(=O)O[C@H](C)[C@@H]1C/C=C\CC[C@H](O)C(C)(C)[C@@H]2CC[C@@H](C)[C@@]3(O2)O[B-]24O[C@@H](C(=O)O1)[C@]1(O[C@@H](CC[C@H]1C)C(C)(C)[C@H](O)CCC[C@@H]1C[C@H](OC(=O)[C@@H]3O2)[C@@H](C)O1)O4.[H+] [Boromycin]
IC50 ([1]; 3D7, 3 days of incubation, comparator for resistant strains, read-out: IC50, 3D7 (Table 4)): 0.0009 ± 0.0001 µM
Fold differences, 3 day-assays [1]: 0.15
Fold differences, 6 day-assays [1]: 0.29
IC50 ([1]; P. falciparum 3D7, 3 days of incubation, read-out: IC50, 3 day-assays, 3D7): 0.0009 ± 0.0001 µM
IC50 (HepG2 cells; HepG2, 24 hours drug incubation, neutral red): 1250 ± 230 µM
selectivity index (SI) (HepG2 cells; HepG2 versus Plasmodium): higher than 200,000
SI 3D7 (HepG2 cells): 1,388,000
SI A1-H.1 (HepG2 cells): 211,864
IC50 ([2]; Dd2, 3 days of incubation): 0.0006 ± 0.0004 µM
IC50 ([3]; K1, 3 days of incubation): 0.0007 ± 0.0001 µM
IC50 ([4]; 7G8, 3 days of incubation): 0.0004 ± 7e-05 µM
IC50 ([5]; stage IV and V gametocytes): 0.0085 ± 0.0036 µM
IC50 ([6]; supplemented with IPP, read-out: IC50, IPP-supplemented): 0.0014 µM
IC50 ([6]; without IPP, read-out: IC50, control without IPP): 0.0009 µM
IC50 ([7]; 3D7, 3 days, KCl 220 μg/ml, read-out: IC50, KCl supplemented): 2.1 ± 0.2 nM
IC50 ([7]; 3D7, 3 days, MgCl2 220 μg/ml, read-out: IC50, MgCl2 supplemented): 0.2 nM
IC50 ([7]; 3D7, 3 days, no supplementation, read-out: IC50 (in nM) control): 0.7 ± 0.1 nM
increase of IC50 by supplementation of KCl ([7]; KCl at 220 μg/mL versus control): 3 fold
boromycin activity with external KCl (Mycobacterium bovis; KCl 20 mg/mL): 10%
boromycin activity without added KCl (Mycobacterium bovis; before addition of KCl): 50%
parasite morphology, strain 3D7 ([8]; 3D7): pyknotic appearance
parasite morphology, strain Dd2 ([8]; Dd2): pyknotic appearance

CCN(CC)CCCC(C)Nc1ccnc2cc(Cl)ccc12 (centres unmarked) [Chloroquine, Chloroquine diphosphate]
Fold differences, 3 day-assays [1]: 0.57
Fold differences, 6 day-assays [1]: 0.61
IC50 ([1]; Plasmodium falciparum, 3D7, 72 h, read-out: IC50, 3D7 (Table 4)): 0.0084 ± 0.0049 µM
IC50 [1, 9]: 0.0084 ± 0.0049 µM
IC50 [1, 10]: 0.0104 ± 0.0048 µM
IC50 (HepG2 cells; Homo sapiens, HepG2, 24 h): 153 µM
SI 3D7 (HepG2 cells): 18,214
SI A1-H.1 (HepG2 cells): 10,551
IC50 ([2]; Plasmodium falciparum, DD2, 72 h): 0.302 ± 0.119 µM
IC50 ([3]; Plasmodium falciparum, K1, 72 h): 0.401 ± 0.0283 µM
IC50 ([4]; Plasmodium falciparum, 7G8, 72 h): 0.304 ± 0.0182 µM
increase of IC50 by supplementation of KCl [7]: no difference was observed
IC50 ([7]; Plasmodium falciparum, 3D7, 72 h, read-out: IC50 (in nM) control): 12 ± 0.8 nM
IC50 ([7]; Plasmodium falciparum, 3D7, 72 h, read-out: IC50, KCl supplemented): 11.6 ± 1.4 nM
IC50 ([7]; Plasmodium falciparum, 3D7, 72 h, read-out: IC50, MgCl2 supplemented): 2.2 nM

CN(C)[C@@H]1C(O)=C(C(N)=O)C(=O)[C@@]2(O)C(O)=C3C(=O)c4c(O)ccc(Cl)c4[C@@](C)(O)[C@H]3C[C@@H]12 [Chlortetracycline]
IC50 [1, 11]: > 18 µM
IC50 [1, 12]: > 18 µM

CN(C)[C@@H]1C(O)=C(C(N)=O)C(=O)[C@@]2(O)C(O)=C3C(=O)c4c(O)ccc(Cl)c4[C@@H](O)[C@H]3C[C@@H]12 [Demeclocycline]
Fold differences, 6 day-assays [1]: 1.06
IC50 [1, 11]: > 18 µM
IC50 [1, 12]: 0.41 ± 0.165 µM

C[C@H]1c2cccc(O)c2C(=O)C2=C(O)[C@]3(O)C(=O)C(C(N)=O)=C(O)[C@@H](N(C)C)[C@@H]3[C@@H](O)[C@@H]21 [Doxycycline, Doxycycline Hyclate]
Fold differences, 3 day-assays [1]: 5.1
Fold differences, 6 day-assays [1]: 0.58
IC50 [1, 11]: 9.58 ± 2.76 µM
IC50 [1, 12]: 0.386 ± 0.292 µM

CN(C)[C@@H]1C(O)=C(C(N)=O)C(=O)[C@@]2(O)C(O)=C3C(=O)c4c(O)c(NC(=O)CN5CCCC5)cc(F)c4C[C@H]3C[C@@H]12 [Eravacycline]
Fold differences, 3 day-assays [1]: 1.08
Fold differences, 6 day-assays [1]: 0.4
IC50 [1, 9]: 2.51 ± 0.55 µM
IC50 [1, 10]: 0.0051 µM

CO[C@@H]1[C@@H](O[C@@H]2O[C@H](C)[C@@H](O[C@H]3C[C@@](C)(O)[C@@H](OC(=O)CC(C)C)[C@H](C)O3)[C@H](N(C)C)[C@H]2O)[C@@H](CC=O)C[C@@H](C)[C@@H](O)/C=C/C=C/C[C@@H](C)OC(=O)C[C@H]1OC(C)=O [Josamycin]
Fold differences, 6 day-assays [1]: 2.3
IC50 [1, 11]: > 18 µM
IC50 [1, 12]: 0.388 ± 0.185 µM

CN(C)[C@@H]1C(O)=C(C(=O)NCNCCCC[C@H](N)C(=O)O)C(=O)[C@@]2(O)C(O)=C3C(=O)c4c(O)cccc4[C@@](C)(O)[C@H]3C[C@@H]12 [Lymecycline]
Fold differences, 6 day-assays [1]: 1
IC50 [1, 9]: > 18 µM
IC50 [1, 10]: 1.12 ± 0.247 µM

C=C1c2c(Cl)ccc(O)c2C(=O)C2=C(O)[C@]3(O)C(=O)C(C(N)=O)=C(O)[C@@H](N(C)C)[C@@H]3[C@@H](O)[C@H]12 [Meclocycline]
Fold differences, 6 day-assays [1]: 0.19
IC50 [1, 9]: > 18 µM
IC50 [1, 10]: 0.292 ± 0.041 µM

C=C1c2cccc(O)c2C(=O)C2=C(O)[C@]3(O)C(=O)C(C(N)=O)=C(O)[C@@H](N(C)C)[C@@H]3[C@@H](O)[C@H]12 [Methacycline]
Fold differences, 6 day-assays [1]: 1.2
IC50 [1, 11]: > 18 µM
IC50 [1, 12]: 3.72 µM

CN(C)c1ccc(O)c2c1C[C@H]1C[C@H]3[C@H](N(C)C)C(O)=C(C(N)=O)C(=O)[C@@]3(O)C(O)=C1C2=O [Minocycline, Minocycline hydrochloride]
Fold differences, 3 day-assays [1]: 3
Fold differences, 6 day-assays [1]: 0.56
IC50 [1, 11]: 9.39 ± 4.35 µM
IC50 [1, 12]: 0.0835 ± 0.025 µM

CO[C@H]1C[C@H](O[C@H]2[C@H](C)[C@@H](O[C@@H]3O[C@H](C)C[C@H](N(C)C)[C@H]3O)[C@@H](C)C[C@@]3(CO3)C(=O)[C@H](C)[C@@H](O)[C@@H](C)[C@@H](C)OC(=O)[C@@H]2C)O[C@@H](C)[C@@H]1O [Oleandomycin]
IC50 [1, 11]: 8.19 ± 3.85 µM
IC50 [1, 12]: > 18 µM

CN(C)c1cc(CNCC(C)(C)C)c(O)c2c1C[C@H]1C[C@H]3[C@H](N(C)C)C(O)=C(C(N)=O)C(=O)[C@@]3(O)C(O)=C1C2=O [Omadacycline]
Fold differences, 3 day-assays [1]: 7.3
Fold differences, 6 day-assays [1]: 0.86
IC50 [1, 11]: 8.44 ± 0.618 µM
IC50 [1, 12]: 0.248 ± 0.109 µM

CON(C)Cc1ccc(O)c2c1C[C@H]1C[C@H]3[C@H](N(C)C)C(O)=C(C(N)=O)C(=O)[C@@]3(O)C(O)=C1C2=O [Sarecycline, Sarecycline hydrochloride]
Fold differences, 3 day-assays [1]: 7.1
Fold differences, 6 day-assays [1]: 0.26
IC50 [1, 9]: 13.4 ± 1.05 µM
IC50 [1, 10]: 0.244 ± 0.136 µM

CO[C@H]1C[C@H](O[C@H]2[C@H](C)[C@@H](O[C@@H]3O[C@H](C)C[C@H](N(C)C)[C@H]3OC(C)=O)[C@@H](C)C[C@@]3(CO3)C(=O)[C@H](C)[C@@H](OC(C)=O)[C@@H](C)[C@@H](C)OC(=O)[C@@H]2C)O[C@@H](C)[C@@H]1OC(C)=O [Troleandomycin]
IC50 [1, 11]: > 18 µM
IC50 [1, 12]: > 18 µM

CC[C@H](C)[C@H](NC(=O)[C@H]([C@@H](C)CC)N(C)C(C)=O)C(=O)N[C@H](C(=O)N[C@@H](CC(C)C)C(=O)[C@@]1(C)CO1)[C@@H](C)O [epoxomicin]
IC50 [5, 13]: 0.0152 ± 0.0034 µM

CN(C)c1ccc2nc3ccc(=[N+](C)C)cc-3sc2c1 [methylene blue, Methylene Blue]
IC50 [5, 13]: 0.284 ± 0.035 µM
